The IC50 is the point on the concentration scale where inhibition reaches its midpoint.

For assay [1], the system named is H460, U251, BSY-1, MDA-MB435, PC-3, DU145, OVCAR-3, WiDr and B16 melanoma cells. Briefly: Growth suppressing activity to various cancer cells, Alamar Blue. The note with it: 72 h; range over nine cancer cell lines, 3 days; read-out: growth suppressing activity IC50 values for the studied cell lines. In kind it is cell-based, human; mouse. How it is done:
H460 human lung cancer cell, U251 human glioma cell, BSY-1 and MDA-MB435 human breast cancer cell, PC-3 and DU145 human prostate cancer cell, OVCAR-3 human ovarian cancer cell, WiDr human colon cancer cell and B16 melanoma mouse melanoma cell cultured in DMEM (manufactured by SIGMA Co., Ltd.) containing 10% fetal calf serum were dispensed in 96-well plates by 2×10^3 cells/180 μl, and they were cultured at 37° C. overnight in a CO2 incubator (5% CO2). Then, 20 μL of the above-mentioned incubation solution containing test compounds diluted with 2-fold succession was added, and they were further cultured in a CO2 incubator for 3 days.
20 μL of Alamar Blue reagent (Biosource Co.) was added to the cultured cells, and after 3 to 5 hours, fluorescence activity (ex 530 nm/em 590 nm) was measured by a micro plate reader (ARBO, Perkin-Elmer Co.). The cell growth of the control to which the compound is not added is set as 100%, the concentration at which it was suppressed by 50% was determined.
On the technique in general: Alamar Blue is a resazurin reagent that responds to reducing activity.

Assay [2] has as its system VEGF production in U251 human glioma cell. Briefly: VEGF production suppressing action under low oxygen, ELISA. In kind it is cell-based. The note with it: U251, low oxygen stimulation. How it is done:
U251 human glioma cell cultured in DULBECCO-modified eagle medium (DMEM; manufactured by SIGMA Co., Ltd.) containing 10% fetal calf serum, penicillin (100 unit/ml) and streptomycin (100 μg/ml) was dispensed in 96-well plates by 4×10^4 cells/well. After culturing at 37° C. overnight in a CO2 incubator (5% CO2), the media were removed, and 180 μl of the above-mentioned incubation solution was charged. After adding 20 μL of the above-mentioned incubation solution containing the test compound diluted with 3-fold succession, they were incubated in a low oxygen (2% O2) incubator for 18 hours. The supernatants thereof were measured by an ELISA kit (Immunobiology Research Institute).
Concentration at which the amount of VEGF expressed by low oxygen stimulation was suppressed to 50% (IC50 value) was determined and results are shown in Table 9. […] The activities of 11107F and 11107G were very weak.
Background: In an ELISA, binding on a coated surface is turned into a signal by an enzyme label.

The subject of assay [3] is MOLT 4 human acute lymphoblastic cell. Briefly: Growth suppressing activity to leukemia cell, Alamar Blue. The note with it: MOLT-4, 72 h, MOLT4, 3 days, read-out: Multiplication suppressing activity IC50. Format: cell-based. How it is done: (§1) Dami human blood megakaryocytic cell, MOLT 4 human acute lymphoblastic cell, K562 human chronic myelogenous cell, U937 human histcytic lymphoma and p388 mouse lymphoma cultured in RPMI 1640 (manufactured by SIGMA Co., Ltd.) containing 10% fetal calf serum were dispensed in 96-well plates by 2×10^3 cells/180 μl, and they were cultured at 37° C. overnight in a CO2 incubator (5% CO2). Then, 20 μL of the above-mentioned incubation solution containing 11107B diluted with 2-fold succession was added, and they were further cultured in a CO2 incubator for 3 days.
(§2) 20 μL of Alamar Blue reagent (Biosource Co.) was added to the cultured cell, and fluorescence activity (ex 530 nm/em 590 nm) was measured by a micro plate reader (ARBO, Perkin-Elmer Co.) after 3 to 5 hours. The cell growth of the control to which the compound is not added is set as 100%, the concentration at which it was suppressed by 50% was determined.

For the next assay, the system named is p388 mouse lymphoma. Described as above. Format: cell-based. Particulars: 72 h, p388, 3 days, read-out: Multiplication suppressing activity IC50. How it is done:
as §1, §2

Assay [4] relates to Dami human blood megakaryocytic cell. The description is as above. Format: cell-based. The note with it: 72 h, 3 days, read-out: Multiplication suppressing activity IC50. As for the experimental part:
as §1, §2

Assay [5] deals with K562 human chronic myelogenous cell. The assay is described as above. The note with it: 72 h, K562, 3 days, read-out: Multiplication suppressing activity IC50. Format: cell-based. As for the experimental part: as §1, §2
For assay [6], the system named is U937 human histcytic lymphoma. Described as above. In kind it is cell-based. The note with it: U-937, 72 h, U937, 3 days, read-out: Multiplication suppressing activity IC50. As for the experimental part:
as §1, §2

Regarding `CCC(O)C(C)C1OC1CC(C)/C=C/C=C(\C)C1OC(=O)CC(O)CCC(C)(O)C(OC(C)=O)/C=C/C1C` (stereo not shown) [11107B], the 50% inhibitory concentration (IC50) is 0.9 to 2.9 nM in assay [1]; 1.5 nM in assay [3]; 2 nM in the assay with p388 mouse lymphoma; 1.2 nM in assay [4]; 2.1 nM in assay [5]; 1.1 nM in assay [6]. For the same molecule, the “VEGF production suppression, in words” value in assay [2] is given as “suppressed most strongly VEGF production”.

The values above are taken from patent US7667052B2 (Eisai R&D Management Co., Ltd., priority 2003, dated 2010).
